Source: PubChem BioAssay (NCI)
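Test compounds were applied to cells in 96-well plates for 48 hours at 5 doses. GI50: concentration for 50% inhibition of growth. TGI denotes the concentration required for complete inhibition of growth.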

How the values were obtained:
Assay in all cases: growth of human tumour cells (NCI), 48 h
SNB-75 CNS = tested on: SNB-75 CNS
786-0 renal = tested on: 786-0 renal
NCI-H460 lung = tested on: NCI-H460 lung
RXF 393 renal = tested on: RXF 393 renal
HCC-2998 colon = tested on: HCC-2998 colon
UACC-257 melanoma = tested on: UACC-257 melanoma
MALME-3M melanoma = tested on: MALME-3M melanoma
SW-620 colon = tested on: SW-620 colon
LOX IMVI melanoma = tested on: LOX IMVI melanoma
PC-3 prostate = tested on: PC-3 prostate
UO-31 renal = tested on: UO-31 renal
ACHN renal = tested on: ACHN renal
CCRF-CEM leukemia = tested on: CCRF-CEM leukemia
HOP-92 NSCLC = tested on: HOP-92 NSCLC
HT29 colon = tested on: HT29 colon
RPMI-8226 leukemia = tested on: RPMI-8226 leukemia
COLO 205 colon = tested on: COLO 205 colon
EKVX NSCLC = tested on: EKVX NSCLC
HOP-62 NSCLC = tested on: HOP-62 NSCLC
K-562 leukemia = tested on: K-562 leukemia
SNB-19 CNS = tested on: SNB-19 CNS
SN12C renal = tested on: SN12C renal
CAKI-1 renal = tested on: CAKI-1 renal
SK-MEL-28 melanoma = tested on: SK-MEL-28 melanoma
KM12 colon = tested on: KM12 colon
SR leukemia = tested on: SR leukemia
SF-295 CNS = tested on: SF-295 CNS
MOLT-4 leukemia = tested on: MOLT-4 leukemia
U251 CNS = tested on: U251 CNS
NCI-H522 lung = tested on: NCI-H522 lung
A549 NSCLC = tested on: A549 NSCLC
DU-145 prostate = tested on: DU-145 prostate
HL-60(TB) leukemia = tested on: HL-60(TB) leukemia
SK-OV-3 ovarian = tested on: SK-OV-3 ovarian
MDA-MB-231 breast = tested on: MDA-MB-231 breast
SK-MEL-2 melanoma = tested on: SK-MEL-2 melanoma
HCT-15 colon = tested on: HCT-15 colon
NCI-H23 lung = tested on: NCI-H23 lung
IGROV1 ovarian = tested on: IGROV1 ovarian
NCI-H226 lung = tested on: NCI-H226 lung
SK-MEL-5 melanoma = tested on: SK-MEL-5 melanoma
UACC-62 melanoma = tested on: UACC-62 melanoma
OVCAR-3 ovarian = tested on: OVCAR-3 ovarian
OVCAR-5 ovarian = tested on: OVCAR-5 ovarian
NCI/ADR-RES ovarian = tested on: NCI/ADR-RES ovarian
SF-268 CNS = tested on: SF-268 CNS
TK-10 renal = tested on: TK-10 renal
OVCAR-4 ovarian = tested on: OVCAR-4 ovarian
M14 melanoma = tested on: M14 melanoma
MCF7 breast = tested on: MCF7 breast
BT-549 breast = tested on: BT-549 breast
MDA-MB-435 = tested on: MDA-MB-435
OVCAR-8 ovarian = tested on: OVCAR-8 ovarian
HS 578T breast = tested on: HS 578T breast
SF-539 CNS = tested on: SF-539 CNS
T-47D breast = tested on: T-47D breast

Compound: COc1ccc(C2(Cl)c3ccccc3N(c3ccccc3)c3ccccc32)cc1
- GI50 (SNB-75 CNS): 359 nM
- TGI (SNB-75 CNS): 2050 nM
- GI50 (786-0 renal): 618 nM
- TGI (786-0 renal): 2060 nM
- GI50 (NCI-H460 lung): 484 nM
- TGI (NCI-H460 lung): 1940 nM
- GI50 (RXF 393 renal): 718 nM
- TGI (RXF 393 renal): 2560 nM
- GI50 (HCC-2998 colon): 357 nM
- TGI (HCC-2998 colon): 1530 nM
- GI50 (UACC-257 melanoma): 797 nM
- TGI (UACC-257 melanoma): 3.67 µM
- GI50 (MALME-3M melanoma): 298 nM
- TGI (MALME-3M melanoma): 1660 nM
- GI50 (SW-620 colon): 370 nM
- TGI (SW-620 colon): 1690 nM
- GI50 (LOX IMVI melanoma): 282 nM
- TGI (LOX IMVI melanoma): 1320 nM
- GI50 (PC-3 prostate): 238 nM
- TGI (PC-3 prostate): 4.11 µM
- GI50 (UO-31 renal): 846 nM
- TGI (UO-31 renal): 10.8 µM
- GI50 (ACHN renal): 598 nM
- TGI (ACHN renal): 10.1 µM
- GI50 (CCRF-CEM leukemia): 1990 nM
- TGI (CCRF-CEM leukemia): 13.8 µM
- GI50 (HOP-92 NSCLC): 1880 nM
- TGI (HOP-92 NSCLC): 7.13 µM
- GI50 (HT29 colon): 306 nM
- TGI (HT29 colon): 2300 nM
- GI50 (RPMI-8226 leukemia): 218 nM
- TGI (RPMI-8226 leukemia): 1360 nM
- GI50 (COLO 205 colon): 421 nM
- TGI (COLO 205 colon): 2450 nM
- GI50 (EKVX NSCLC): 250 nM
- TGI (EKVX NSCLC): 2900 nM
- GI50 (HOP-62 NSCLC): 411 nM
- TGI (HOP-62 NSCLC): 2760 nM
- GI50 (K-562 leukemia): 335 nM
- TGI (K-562 leukemia): 12 µM
- GI50 (SNB-19 CNS): 637 nM
- TGI (SNB-19 CNS): 2430 nM
- GI50 (SN12C renal): 232 nM
- TGI (SN12C renal): 1220 nM
- GI50 (CAKI-1 renal): 1680 nM
- TGI (CAKI-1 renal): 12.5 µM
- GI50 (SK-MEL-28 melanoma): 222 nM
- TGI (SK-MEL-28 melanoma): 1490 nM
- GI50 (KM12 colon): 1180 nM
- TGI (KM12 colon): 5.54 µM
- GI50 (SR leukemia): 357 nM
- TGI (SR leukemia): 3.28 µM
- GI50 (SF-295 CNS): 301 nM
- TGI (SF-295 CNS): 1850 nM
- GI50 (MOLT-4 leukemia): 1830 nM
- TGI (MOLT-4 leukemia): 11 µM
- GI50 (U251 CNS): 50.5 nM
- TGI (U251 CNS): 1290 nM
- GI50 (NCI-H522 lung): 444 nM
- TGI (NCI-H522 lung): 2940 nM
- GI50 (A549 NSCLC): 407 nM
- TGI (A549 NSCLC): 2900 nM
- GI50 (DU-145 prostate): 536 nM
- TGI (DU-145 prostate): 2040 nM
- GI50 (HL-60(TB) leukemia): 542 nM
- TGI (HL-60(TB) leukemia): 4.25 µM
- GI50 (SK-OV-3 ovarian): 495 nM
- TGI (SK-OV-3 ovarian): 2740 nM
- GI50 (MDA-MB-231 breast): 759 nM
- TGI (MDA-MB-231 breast): 2540 nM
- GI50 (SK-MEL-2 melanoma): 377 nM
- TGI (SK-MEL-2 melanoma): 1850 nM
- GI50 (HCT-15 colon): 909 nM
- TGI (HCT-15 colon): 10.8 µM
- GI50 (NCI-H23 lung): 329 nM
- TGI (NCI-H23 lung): 1810 nM
- GI50 (IGROV1 ovarian): 770 nM
- TGI (IGROV1 ovarian): 10.3 µM
- GI50 (NCI-H226 lung): 1010 nM
- TGI (NCI-H226 lung): 3.55 µM
- GI50 (SK-MEL-5 melanoma): 266 nM
- TGI (SK-MEL-5 melanoma): 1310 nM
- GI50 (UACC-62 melanoma): 191 nM
- TGI (UACC-62 melanoma): 1400 nM
- GI50 (OVCAR-3 ovarian): 307 nM
- TGI (OVCAR-3 ovarian): 1470 nM
- GI50 (OVCAR-5 ovarian): 2190 nM
- TGI (OVCAR-5 ovarian): 7.64 µM
- GI50 (NCI/ADR-RES ovarian): 2050 nM
- TGI (NCI/ADR-RES ovarian): 10.5 µM
- GI50 (SF-268 CNS): 758 nM
- TGI (SF-268 CNS): 2880 nM
- GI50 (TK-10 renal): 516 nM
- TGI (TK-10 renal): 3.21 µM
- GI50 (OVCAR-4 ovarian): 447 nM
- TGI (OVCAR-4 ovarian): 2810 nM
- GI50 (M14 melanoma): 224 nM
- TGI (M14 melanoma): 1380 nM
- GI50 (MCF7 breast): 182 nM
- TGI (MCF7 breast): 1900 nM
- GI50 (BT-549 breast): 211 nM
- TGI (BT-549 breast): 1420 nM
- GI50 (MDA-MB-435): 242 nM
- TGI (MDA-MB-435): 1560 nM
- GI50 (OVCAR-8 ovarian): 203 nM
- TGI (OVCAR-8 ovarian): 2700 nM
- GI50 (HS 578T breast): 407 nM
- TGI (HS 578T breast): 17.2 µM
- GI50 (SF-539 CNS): 519 nM
- TGI (SF-539 CNS): 1950 nM
- GI50 (T-47D breast): 288 nM
- TGI (T-47D breast): 5.38 µM
